For data set [1], the system named is U937, IC-21 and erythrocytes. As to the kind of experiment: Binding density of 125I-LL-37-GY on mammalian cells. The note with it: 5 μg/ml 125I-LL-37-GY; U937, IC-21 and erythrocytes vs tested bacteria.
Data set [2] can be described thus: Binding of 125I-LL-37-GY to latex beads. The note with it: 10 μg/ml 125I-labeled LL-37-GY; preliminary experiments.
The test system of data set [3] is Mac-1-HEK293 cells. The data set is classed as cell-based, human.
Data set [4] concerns Mac-1. The conditions noted are these: cited from earlier work.
Data set [5] concerns peritoneal mouse macrophages. The note with it: LL-37 10 μg/ml, 1 μm beads, beads:cells 10:1, 30 min at 37 °C.
In data set [6] the test system is primary human monocytes. The note with it: compared to uncoated beads; cited from earlier work.
The test system of data set [7] is wild-type macrophages. The experiment in a line: Phagocytosis of latex beads by wild-type peritoneal macrophages. The data set is classed as cell-based, mouse.
Data set [8] has as its system Human neutrophils. The conditions noted are these: cited from earlier work.
Data set [9] has as its system human THP-1 cells. The conditions noted are these: LL-37 10 μg/ml, 1 μm beads, beads:cells 10:1, 30 min at 37 °C.
The subject of data set [10] is Salmonella. As to the kind of experiment: Binding density of 125I-LL-37-GY on Salmonella. The note with it: 5 μg/ml 125I-LL-37-GY, 20 min at 22 °C.
The test system of data set [11] is murine macrophages. The conditions noted are these: opsonization with LL-37; cited from earlier work.
Data set [12] relates to bacteria. The note with it: bacterial killing in physiologically relevant buffers; cited from earlier work.
Data set [13] deals with U937 cells. The experiment in a line: Adhesion of U937 monocytic cells to immobilized LL-37. In kind it is cell-based, human. The conditions noted are these: data not shown.
For data set [14], the system named is adherent IC-21 macrophages. The note with it: LL-37 5 μg/ml, E. coli, 60 min at 37 °C.
Data set [15] relates to adherent murine peritoneal macrophages. As to the kind of experiment: Phagocytosis of E. coli and S. aureus by adherent murine peritoneal macrophages. In kind it is cell-based. The conditions noted are these: LL-37 5 μg/ml, 60 min at 37 °C.
Data set [16] has as its system αMI-domain. The conditions noted are these: cited from earlier work.
Data set [17] has as its system Mac-1-HEK293 cells. As to the kind of experiment: Adhesion of Mac-1-HEK293 cells to immobilized peptide. In kind it is cell-based, human.
Data set [18] deals with wild-type HEK293 cells. The experiment in a line: Adhesion of wild-type HEK293 cells to immobilized LL-37. The data set is classed as cell-based, human.
Data set [19] concerns wild-type HEK293 cells. As to the kind of experiment: Spreading of wild-type HEK293 cells on LL-37. The conditions noted are these: 30 min at 37 °C. The data set is classed as cell-based, human.
In data set [20] the test system is monocyte and macrophages. The conditions noted are these: cited from earlier work.
Data set [21] has as its system IC-21 macrophages. The experiment in a line: Adhesion of IC-21 macrophages to immobilized peptide. In kind it is cell-based, murine. The conditions noted are these: in words; Fig. 4A shown for K18-37.
For data set [22], the system named is Mac-1-deficient macrophages. As to the kind of experiment: Phagocytosis of latex beads by Mac-1-deficient peritoneal macrophages. In kind it is cell-based, mouse. The note with it: LL-37-coated beads, 30 min at 37 °C.
The test system of data set [23] is IC-21 macrophages. The conditions noted are these: LL-37 10 μg/ml, 1 μm beads, beads:cells 10:1, 30 min at 37 °C.
Data set [24] relates to rodents. The note with it: LL-37 injection; cited from earlier work.
The test system of data set [25] is Mac-1-HEK293 cells. As to the kind of experiment: Spreading of Mac-1-HEK293 cells on LL-37. The data set is classed as cell-based, human. The conditions noted are these: slides coated with LL-37, 30 min at 37 °C.
The subject of data set [26] is Human neutrophils. The note with it: cited from earlier work. This is another data set of the same source.
Data set [27] deals with adherent IC-21 macrophages. The note with it: LL-37 5 μg/ml, S. aureus, 60 min at 37 °C.
The subject of data set [28] is neutrophils. The conditions noted are these: cited from earlier work.
For data set [29], the system named is leukocytes. The conditions noted are these: soluble LL-37; cited from earlier work.
Data set [30] has as its system macrophages. The experiment in a line: Phagocytosis of bacteria by macrophages. In kind it is cell-based.
Data set [31] concerns αMI-domain. The note with it: surface plasmon resonance and biolayer interferometry; cited from earlier work.
Data set [32] has as its system macrophages. The conditions noted are these: pretreatment of macrophages with LL-37; cited from earlier work.
The test system of data set [33] is human peripheral blood monocytes, neutrophils and T cells. The note with it: cited from earlier work.
For data set [34], the system named is mammalian cells. The note with it: LL-37 10 μg/ml; data not shown.
In data set [35] the test system is IC-21 macrophages. As to the kind of experiment: Inhibition of IC-21 macrophage adhesion to immobilized K18-37. The data set is classed as cell-based, murine. The conditions noted are these: K18-37 coating 0.5 μg/ml; heparin 20 μg/ml; mean ± S.E. from 5-6 experiments.
Data set [36] concerns wild-type HEK293 cells. The experiment in a line: Inhibition of wild-type HEK293 cell adhesion to immobilized LL-37. In kind it is cell-based, human. The note with it: heparin 20 μg/ml, all coating concentrations of LL-37.
The subject of data set [37] is Mac-1-HEK293 cells. The experiment in a line: Inhibition of Mac-1-HEK293 cell adhesion to immobilized LL-37. In kind it is cell-based, human.

“Also recorded” adds a separate entry of the source. Like-named read-outs stand apart in the source and are kept apart here. Ends that are not written are not given here. A value given as a limit tells only on which side of the number the result lay.

Turning to “LL-37-GY: LL-37 containing two additional C-terminal residues Gly-Tyr (LLGDFFRKSKEKIGKEFKRIVQRIKDFLRNLVPRTESGY; also: 125I label, place not given here)”, in [1], the “binding compared with bacteria” value is “bound significantly less”. In addition, in [2], the “binding density on beads” value is 10.6±1.3 fg/μm^2.

Turning to DIDPKLKWD [reference compound], in data set [3] (control peptide, fibrinogen coated at 2.5 μg/ml, 15 min at 22 °C), the “inhibition of cell adhesion to fibrinogen” value was “inactive”.

In the case of dynorphin A, the phagocytosis entry is “enhance phagocytosis” in [4]; “opsonizes bacteria and promotes phagocytosis through Mac-1” in data set [4] (opsonization, through Mac-1).

In the case of “LLGDFFRKSKEKIGKEFKRIVQRIKDFLRNLVPRTES [LL-37]”, the “fold augmentation of bead uptake” value in data set [5] is recorded as around 4.5 fold; in data set [9], around 6 fold; in data set [23] it was ~ 3.5 fold. The “uptake of LL-37-coated beads” value in [6] is “increased compared to uncoated beads”. In addition, the “enhancement of bead uptake” value in data set [7] (LL-37-coated beads, 30 min at 37 °C, three experiments in triplicate) is given as ~ 5 times; in data set [7] (LL-37-coated vs untreated beads, abstract), “several fold higher than that of untreated beads”; in data set [22], “failed to augment phagocytosis of beads”. Also, in data set [8], the “production of reactive oxygen species” value is listed as “increase the production of reactive oxygen species”. Further, the “binding relative to E. coli (fold less)” value in [10] stood at 1.8 fold. Further, in [10], the “binding to Salmonella relative to mammalian cells (fold higher)” value is recorded as ~ 17 fold. For the same molecule, the results for the phagocytosis entry in data set [11] and in data set [15] were “increased phagocytosis by murine macrophages” and “increased phagocytosis”, respectively. Also, in [12], the minimal inhibitory concentration was 30 to 100 µg/mL. The “adhesion of U937 cells” value in [13] is “adhered to LL-37 in a concentration-dependent manner”. In addition, the “fold increase of phagocytosis” value in [14] is listed as ~ 17 fold; in data set [27] it was around 10 fold. The αMI-domain binding entry in data set [16] is reported as “binds the αMI-domain”. Also, in data set [17] (LL-37 coating 2 μg/ml, 30 min at 37 °C, calcein fluorescence, n=6), the “adhesion (percent of added cells)” value is 52 ± 5%. In addition, the “coating concentration for saturable adhesion” value in data set [17] (Mac-1-HEK293, 30 min at 37 °C) is 2 µg/mL. Besides, in [17] (in words), the “adhesion supported by peptide” value is recorded as “supported strong adhesion; also recorded: supported efficient adhesion”. Further, the “adhesion of wild-type HEK293 cells” value in [18] (LL-37 coating 0-1.0 μg/ml) is “no adhesion”; in data set [18] (LL-37 coating 1-4 μg/ml), “supported adhesion of wild-type HEK293 cells; however, maximal adhesion did not reach the level attained with Mac-1-HEK293 cells”. In addition, the results for the cell spreading entry in data set [19] (LL-37 coating 2 μg/ml), in data set [19] (LL-37 coating 0.2-1.0 μg/ml) and in [25] were “spread at higher LL-37 concentrations”, “remained round” and “spread in a concentration-dependent manner with the formation of stress fibers”, respectively. Also, in data set [20], the induction of migration entry is “induces a potent migratory response of Mac-1-expressing monocytes and macrophages; also recorded: induced Mac-1-dependent migration of monocyte and macrophages”. The “adhesion of IC-21 macrophages” value in data set [21] is recorded as “strongly adhered”. In data set [24], the “protection from septic death” value is “protects rodents from septic death”. In addition, the apoptosis entry in data set [26] is recorded as “delayed apoptosis”. Also, the neutrophil activation entry in data set [28] is “activates Mac-1 on the surface of neutrophils”. Also, in [29], the “concentration affecting membrane integrity of leukocytes” value is above 50 µg/mL. In data set [30] (Gram-negative and Gram-positive bacteria coated with LL-37, abstract), the “phagocytosis of bacteria” value is reported as “significantly potentiated their phagocytosis”. In data set [30] (summary in discussion), the “concentration found to enhance bacterial phagocytosis” value was in the range of 1 to 5 µg/mL. Further, the “interaction with αMI-domain” value in data set [31] was “The interaction of the αMI-domain with LL-37 also was recently reported”. For the same molecule, the bacterial phagocytosis entry in data set [32] was “augmented by pretreatment of macrophages”. Also, the chemotactic effect result in [33] is “chemotactic effect”. Further, the “calcein leakage relative to background of control untreated cells” value in data set [34] is reported as ~ 3 fold.

As for “FKRIVQRIKDFLR [FK-13, reference compound]”, the “interaction with αMI-domain” value in data set [31] is listed as “no interaction”.

Take heparin: the “inhibition of adhesion to K18-37” value in data set [35] amounted to 25 ± 13%. In addition, the “inhibition of adhesion of wild-type HEK293 cells” value in data set [36] is on record as “strong inhibitor of adhesion”.

KRIVQRIKDFLRNLVPRTES [K18-37]: the “IC50 for inhibition of cell adhesion to fibrinogen” value in [3] (3 h) turned out to be 6 µg/mL.

B1: NIF: neutrophil inhibitory factor, a specific inhibitor of the αMI-domain-ligand interactions (protein)
chain: NEHNLRCPQNGTEMPGFNDSIRLQFLAMHNGYRSKLALGHISITEESESDDDDDFGFLPDFAPRASKMRYLEYDCEAEKSAYMSARNCSDSSSPPEGYDENKYIFENSNNISEAALKAMISWAKEAFNLNKTKEGEGVLYRSNHDISNFANLAWDAREKFGCAVVNCPLGEIDDETNHDGETYATTIHVVCHYPKINKTEGQPIYKVGTPCDDCSEYTKKADNTTSADPVCIPDDGVCFIGSKADYDSKEFYRFREL
With B1, in data set [37] (LL-37 coating high (2 μg/ml or ≥2 μg/ml), inhibitor preincubated 15 min at 22 °C), the “inhibition of adhesion” value is “but not high (≥2 μg/ml) concentrations”. Besides, the “inhibition of cell adhesion to LL-37 (summary, words)” value in data set [37] (abstract, various Mac-1-expressing cells) is listed as “partially inhibited”.

These data come from publication PMC5157691 (Research and reports in biochemistry, 2016).
